Reference: article PMC4709452 (Frontiers in Pharmacology, 2016)

Assays:
anesthetized rats [1] = test: Basal cardiovascular parameters in anesthetized, pre-treated rats; format: in vivo, rat; conditions: 15 min after i.v. bolus (enalaprilat 0.1 mg/kg, Plummer's inhibitor 0.75 mg/kg, icatibant 10 μg/kg, B-9858 20 μg/kg), means ± SEM
Text: (§1) The femoral arterial catheter implanted to monitor direct blood pressure was connected to a pressure transducer (TSD 104A, Biopac Systems Inc., Goleta, CA, USA) coupled to a computer-based data acquisition system (MP100, Biopac Systems Inc., Goleta, CA, USA) to continuously record pulsate arterial pressure. The animals were maintained under anesthesia and were warmed with a heated pad.
(§2) The mechanism subserving the cardiovascular responses to i.v. injections of increasing doses of the different BK agonists was first investigated in animals pretreated with the ACE inhibitor, enalaprilat. In these experiments, the animals were separated in five groups depending on the agonist tested. Enalaprilat was intravenously administered as bolus (0.1 mg/kg, 0.1 ml) following a 10 min period of baseline measurements of HR and blood pressure. Fifteen minutes later, dose-response curves to BK, BK-His-Leu, B-9972, BK-Arg, or BK-Ala-Pro were obtained in the indicated group of rats, as described above. Further experiments were made in rats pretreated with the Plummer’s inhibitor (mercaptomethyl- 3-guanidinoethylthiopropanoic acid), a high affinity inhibitor of arginine carboxypeptidases that is an arginine analog ([Plummer and Ryan, 1981]). In these experiments, the inhibitor was intravenously administered as bolus (0.75 mg/kg, 0.1 ml) followed 15 min later by the i.v. injection of increasing doses of BK or BK-Arg, in two different groups of rats. […] In these experiments, icatibant was intravenously administered as bolus (10 μg/kg, 0.1 ml) 15 min before the i.v. injection of increasing doses of BK, BK-His-Leu, B-9972, BK-Ala-Pro, or BK-Arg, in separated groups of rats, as above. The doses of different inhibitors were based on preliminary experiments and from studies performed by others ([Ishida et al., 1989]; [Wirth et al., 1991]; [Muto et al., 2003]), with deliberate low dosing for peptidase inhibitors for the sake of their selectivity of action. Whether a component of BK hemodynamic effects is mediated by the B1R was assessed in rats pre-treated with the specific B1R antagonist, B-9858 (20 μg/kg, 0.1 ml). B-9858 (Lys-Lys-[Hyp^3, Igl^5, D-Igl^7, Oic^8]des-Arg^9-BK) is a selective B1R antagonist ([Leeb-Lundberg et al., 2005]) that has been found active at the rat B1R ([Scott et al., 2003]).
Baseline values for MAP and HR measured in the untreated control group or 15 min after i.v. pretreatment with enalaprilat, icatibant or the Plummer’s inhibitor are shown in Table 2. While no significant changes in basal values of MAP were noted between the enalaprilat and Plummer’s inhibitor pretreated groups, a slight but significant reduction in basal MAP was found between the icatibant pretreated group and the control group. Furthermore, slight but significant reductions in basal HR were noted between the icatibant and Plummer’s inhibitor pretreated groups and the control group, while a small significant increase in basal HR was found between the enalaprilat pretreated groups and the control group.

anesthetized rats [2] = test: In vivo vascular reactivity: hypotensive (MAP) response to i.v. bolus injections; design: species or system rat; conditions: for doses at which the decrease in MAP was significant compared to vehicle: doses tested 0.025-6.4 μg/kg, untreated anesthetized rats, Dunnett's test
Description: (§3) At the end of the acclimation period, the rats were anesthetized with sodium pentobarbital (50 mg kg^-1, i.p., supplemented as required) and had two separate catheters implanted; one into the right jugular vein [for intravenous (i.v.) injection] and the other into the left femoral artery (for direct measurement of blood pressure and heart rate (HR). In some experiments, a pulsed Doppler flow probe ([Haywood et al., 1981]) was also implanted around the distal abdominal aorta (below the ileocecal artery) through a midline abdominal incision to monitor changes in hindquarter hemodynamic, according to the method developed by [Gardiner and Bennett (1988)] and as previously described ([Bachelard et al., 1992b]). The probes wires were connected to a pulsed Doppler monitoring system (VF-1 Doppler flowmeter; Crystal Biotech, Holliston, MA, USA) modified to operate with a pulse repetition frequency of 125 kHz ([Gardiner et al., 1990]) and fitted with HVPD-20 modules. The mean Doppler signal represents the average hindquarter blood flow velocity, a relative index of blood flow. […] Experiments started at least 30 min following the end of surgery in anesthetized rats.
as §1
The experiments were initiated after allowing at least 20 min for stabilization. Then, baseline measurements of HR and phasic and mean arterial blood pressure (MAP) were made over a period of 10 min. […] Peptides were dissolved in isotonic saline (0.9% NaCl) containing 0.1% BSA to prevent the adsorption of peptide to the glassware and plastic surfaces. All i.v. injections were given as 100 μl boluses which were washed in with a further 100 μl of saline (the dead space of the catheter). Only one peptide was tested per group of rats and each injection started with saline-BSA 0.1% followed by the lowest dose of peptide. The next dose was administered once all recorded cardiovascular parameters had returned to baseline after the previous injection (usually 2–10 min). At the end of the experiments each animal was euthanized with an overdose of sodium pentobarbitone (240 mg/kg, i.v.).
as §2, with “The doses of different inhibitors were based on preliminary experiments and from studies performed by others ([Ishida et al., 1989]; [Wirth et al., 1991]; [Muto et al., 2003]), with deliberate low dosing for peptidase inhibitors for the sake of their selectivity of action. Whether a component of BK hemodynamic effects is mediated by the B1R was assessed in rats pre-treated with the specific B1R antagonist, B-9858 (20 μg/kg, 0.1 ml). B-9858 (Lys-Lys-[Hyp^3, Igl^5, D-Igl^7, Oic^8]des-Arg^9-BK) is a selective B1R antagonist ([Leeb-Lundberg et al., 2005]) that has been found active at the rat B1R ([Scott et al., 2003]).” left out

anesthetized rats [3] = test: In vivo vascular reactivity: heart rate changes after i.v. bolus injections; design: species or system rat
Description: as §3, with “rats. […]” for “rats.”
The experiments were initiated after allowing at least 20 min for stabilization. […] The next dose was administered once all recorded cardiovascular parameters had returned to baseline after the previous injection (usually 2–10 min). […]

[4] = icatibant 10 μg/kg i.v. 15 min before, agonist 0.025-6.4 μg/kg i.v.

Lys-Lys-[Hyp^3, Igl^5, D-Igl^7, Oic^8]des-Arg^9-BK [B-9858]
Basal mean arterial blood pressure (MAP) after pre-treatment (anesthetized rats [1]; control 103.1 ± 1.8): 103.3 ± 6.2
Basal heart rate (HR) after pre-treatment (anesthetized rats [1]; control 393 ± 6, in bpm (unit assumed)): 397 ± 11

des-Arg^9-BK
effect on MAP at the dose of 0.025 μg/kg (anesthetized rats [2]; i.v. bolus, compared to vehicle, n = 9): no significant effect
doses at which the decrease in MAP was significant compared to vehicle (anesthetized rats [2]; i.v. bolus): ≥ 0.1 µg/kg

N=C(N)NCCSCC(CS)C(=O)O (stereo not drawn) [Plummer’s inhibitor, mercaptomethyl-3-guanidinoethylthiopropanoic acid]
Basal mean arterial blood pressure (MAP) after pre-treatment (anesthetized rats [1]; control 103.1 ± 1.8): 107.1 ± 4.7
Basal heart rate (HR) after pre-treatment (anesthetized rats [1]; control 393 ± 6, in bpm): 353 ± 17ˆ*

D-Arg-[Hyp^3,Igl^5,Oic^7,Igl^8]-BK [B-9972]
effect of enalaprilat pretreatment on the dose-dependent hypotensive response (anesthetized rats [2]; enalaprilat 0.1 mg/kg i.v. 15 min before, agonist 0.025-6.4 μg/kg i.v.): not affected
half-recovery time of hypotensive episodes compared with a similar dose of BK (anesthetized rats [2]; i.v. bolus, for B-9972 the highest dose): significantly longer
reduction of apparent hypotensive potency by icatibant (anesthetized rats [2]; icatibant 10 μg/kg i.v. 15 min before): about 10 fold
effect of icatibant pretreatment on the hypotensive response (anesthetized rats [2]; [4]): significantly abated

C[C@H](N[C@@H](CCc1ccccc1)C(=O)O)C(=O)N1CCC[C@H]1C(=O)O [Enalaprilat, enalaprilat]
Basal mean arterial blood pressure (MAP) after pre-treatment (anesthetized rats [1]; control 103.1 ± 1.8): 99.2 ± 1.5
Basal heart rate (HR) after pre-treatment (anesthetized rats [1]; control 393 ± 6, in bpm): 416 ± 6ˆ*

D-Arg-[Hyp^3, Thi^5, D-Tic^7, Oic^8] bradykinin [Icatibant]
Basal mean arterial blood pressure (MAP) after pre-treatment (anesthetized rats [1]; control 103.1 ± 1.8, in mmHg): 95.3 ± 1.6ˆ*
Basal heart rate (HR) after pre-treatment (anesthetized rats [1]; control 393 ± 6, in bpm): 356 ± 8ˆ**

bradykinin (RPPGFSPFR; Bradykinin; UniProt P01042 381-389, looked up) [BK]
effect of B-9858 (B1R antagonist) pretreatment on the hypotensive response (anesthetized rats [2]; B-9858 20 μg/kg i.v.): did not significantly modify
effect of Plummer's inhibitor pretreatment on the hypotensive response (anesthetized rats [2]; Plummer's inhibitor 0.75 mg/kg i.v. 15 min before): no effect
potentiation of the hypotensive effect by enalaprilat pretreatment (anesthetized rats [2]; enalaprilat 0.1 mg/kg i.v. 15 min before): ~15 fold
doses at which the decrease in MAP was significant compared to vehicle (anesthetized rats [2]; i.v. bolus): ≥ 0.4 µg/kg
effect of icatibant pretreatment on the hypotensive response (anesthetized rats [2]; [4]): significantly and extensively inhibited
dose at which a significant bradycardia preceded tachycardia (anesthetized rats [3]): 6.4 µg/kg
doses at which tachycardia accompanied the hypotensive response (anesthetized rats [3]; doses tested 0.025-6.4 μg/kg, compared with vehicle): ≥ 0.4 µg/kg
